Values joined by “and” are separate entries in the source; they are usually repeats but may differ in a detail not shown here. Equal entries are not always repeated. Records with an inconclusive call do not appear.
Test system: MX-1 breast xenograft, intrarenal, nude mice, tumor weight
Assay: NCI In Vivo Anticancer Drug Screen. Data for tumor model Human Mammary Carcinoma MX-1 Xenograft (intrarenal inoculation) in NU/NU BALB/C (nude) mice
Conditions: endpoint: mean tumor weight change, higher = larger tumour
Procedure, shortened: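 T/C readout: treated-group measurement over vehicle-control measurement, using tumor size or survival in tumor-bearing mice.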

[1] = dose: 37.5 mg/kg/injection, schedule: Q04DX003 (sc), vehicle: Klucel (hydroxypropylcellulose) (HPC)
[2] = dose: 150.0 mg/kg/injection, schedule: Q04DX003 (sc), vehicle: Klucel (hydroxypropylcellulose) (HPC)
[3] = dose: 300.0 mg/kg/injection, schedule: Q04DX003 (sc), vehicle: Klucel (hydroxypropylcellulose) (HPC)
[4] = dose: 50.0 mg/kg/injection, schedule: Q04DX003 (ip), vehicle: saline with Tween-80
[5] = dose: 100.0 mg/kg/injection, schedule: Q04DX003 (ip), vehicle: saline with Tween-80
[6] = dose: 200.0 mg/kg/injection, schedule: Q04DX003 (ip), vehicle: saline with Tween-80
[7] = dose: 400.0 mg/kg/injection, schedule: Q04DX003 (ip), vehicle: saline with Tween-80
[8] = dose: 300.0 mg/kg/injection, schedule: Q04DX003 (sc), vehicle: saline with Tween-80
[9] = dose: 600.0 mg/kg/injection, schedule: Q04DX003 (sc), vehicle: saline with Tween-80
[10] = dose: 1200.0 mg/kg/injection, schedule: Q04DX003 (sc), vehicle: saline with Tween-80
[11] = dose: 150.0 mg/kg/injection, schedule: Q04DX003 (sc), vehicle: saline with Tween-80
[12] = dose: 2400.0 mg/kg/injection, schedule: Q04DX003 (sc), vehicle: saline with Tween-80

Compound: O=S1(=O)CS(=O)(=O)OCCO1
- T/C (dose: 12.5 mg/kg/injection, schedule: Q04DX003 (sc), vehicle: Klucel (hydroxypropylcellulose) (HPC)): 72 % of control
- T/C (dose: 25.0 mg/kg/injection, schedule: Q04DX003 (sc), vehicle: Klucel (hydroxypropylcellulose) (HPC)): 23 % of control
- T/C [1]: 42 % of control
- T/C (dose: 50.0 mg/kg/injection, schedule: Q04DX003 (sc), vehicle: Klucel (hydroxypropylcellulose) (HPC)): 2 % of control
- T/C [2]: 16 % of control and 21 % of control
- T/C [3]: 11 % of control

Compound: Cn1cc(NC(=O)c2cc(NC(=O)c3cc(NC=O)cn3C)cn2C)cc1C(=O)NCCC(=N)N
- T/C (dose: 50.0 mg/kg/injection, schedule: Q04DX003 (ip), vehicle: water): 82 % of control
- T/C (dose: 100.0 mg/kg/injection, schedule: Q04DX003 (ip), vehicle: water): 83 % of control
- T/C (dose: 200.0 mg/kg/injection, schedule: Q04DX003 (ip), vehicle: water): 51 % of control

Compound: CCC1(O)C(=O)OCc2c1cc1n(c2=O)Cc2cc3cc4c(cc3nc2-1)OCO4 (configuration not stated)
- T/C (dose: 4.0 mg/kg/injection, schedule: Q04DX003 (ip), vehicle: saline with Tween-80): -100 % of control

Compound: O=C(Nc1ccccc1)c1c(O)[nH]c(=S)[nH]c1=O
- T/C [4]: 85 % of control
- T/C (dose: 75.0 mg/kg/injection, schedule: Q04DX003 (ip), vehicle: saline with Tween-80): 98 % of control
- T/C [5]: 108 % of control

Compound: CN(C)CCNc1ccc(CO)c2sc3ccc(O)cc3c(=O)c12
- T/C [4]: 30 % of control
- T/C [5]: 25 % of control and 26 % of control and 28 % of control
- T/C [6]: 6 % of control and 17 % of control and 28 % of control
- T/C [7]: 5 % of control and 10 % of control and 18 % of control

Compound: C[C@]12CC[C@@H]3c4ccc(OC(=O)Cc5ccc(N(CCCl)CCCl)cc5)cc4CC[C@H]3[C@@H]1CC[C@@H]2OC(=O)Cc1ccc(N(CCCl)CCCl)cc1
- T/C [8]: 98 % of control
- T/C [9]: 24 % of control
- T/C [10]: 7 % of control

Compound: CC(=O)C(Cl)C(=O)c1c(C)[nH]n(-c2ccccc2)c1=O (configuration not stated)
- T/C (dose: 150.0 mg/kg/injection, schedule: Q04DX003 (ip), vehicle: Klucel (hydroxypropylcellulose) (HPC)): 103 % of control

Compound: CC(=O)OCC1OC([S-])C(OC(C)=O)C(OC(C)=O)C1OC(C)=O.CC[PH+](CC)CC.CC[PH+](CC)CC.[Au].[Au] (configuration not stated)
- T/C (dose: 3.13 mg/kg/injection, schedule: Q04DX003 (ip), vehicle: Klucel (hydroxypropylcellulose) (HPC)): 110 % of control
- T/C (dose: 12.5 mg/kg/injection, schedule: Q04DX003 (ip), vehicle: Klucel (hydroxypropylcellulose) (HPC)): 73 % of control

Compound: CNC=O
- T/C (dose: 100.0 mg/kg/injection, schedule: Q01DX010 (sc), vehicle: saline): 47 % of control
- T/C (dose: 200.0 mg/kg/injection, schedule: Q01DX010 (sc), vehicle: saline): 10 % of control

Compound: CCOC1=Cc2c(oc3c(C(C)(C)C)cc(OCC)cc23)OC(C(C)(C)C)=C1
- T/C (dose: 37.5 mg/kg/injection, schedule: Q04DX003 (sc), vehicle: saline with Tween-80): 94 % of control
- T/C (dose: 75.0 mg/kg/injection, schedule: Q04DX003 (sc), vehicle: saline with Tween-80): 98 % of control
- T/C [11]: 121 % of control
- T/C [8]: 92 % of control and 111 % of control
- T/C [9]: 77 % of control
- T/C [12]: 73 % of control

Compound: C=C(C)C(=O)O[C@H]1CC2=C[C@@H](C[C@@]3(C)O[C@@H]3[C@H]3OC(=O)C(=C)[C@@H]31)OC2=O
- T/C [1]: 96 % of control
- T/C (dose: 75.0 mg/kg/injection, schedule: Q04DX003 (sc), vehicle: Klucel (hydroxypropylcellulose) (HPC)): 78 % of control
- T/C [2]: 104 % of control
- T/C [3]: 72 % of control

Compound: CN(C)C1C(=O)C(C(=O)NP(=O)(NCCCO)N(CCCl)CCCl)=C(O)C2(O)C(=O)C3=C(O)c4c(O)cccc4C(C)(O)C3CC12 (configuration not stated)
- T/C [8]: -100 % of control and -98 % of control
- T/C [9]: -100 % of control

Compound: Nc1nc2c(ncn2C2OC(CO)C(O)C2O)c(=O)[nH]1 (configuration not stated)
- T/C [8]: 84 % of control
- T/C [9]: 81 % of control
- T/C [10]: 82 % of control
- T/C [12]: 88 % of control

Compound: S=C1CCCCN1
- T/C (dose: 150.0 mg/kg/injection, schedule: Q04DX003 (ip), vehicle: distilled water + Tween-80 + alcohol): 82 % of control
- T/C (dose: 300.0 mg/kg/injection, schedule: Q04DX003 (ip), vehicle: distilled water + Tween-80 + alcohol): 72 % of control

Compound: C/C(=N\NC(=S)N1CCN(c2ccccn2)CC1)c1ccccn1
- T/C (dose: 75.0 mg/kg/injection, schedule: Q04DX003 (sc), vehicle: water): 104 % of control

Compound: NC(Cc1ccccc1)C(=O)OCN1C(=O)C2C3C=CC(C2C1=O)C1C2C(=O)N(COC(=O)C(N)Cc4ccccc4)C(=O)C2C31 (configuration not stated)
- T/C (dose: 21.6 mg/kg/injection, schedule: Q01DX009 (ip), vehicle: water): 76 % of control
- T/C (dose: 25.0 mg/kg/injection, schedule: Q04DX003 (ip), vehicle: other): 94 % of control
- T/C (dose: 30.9 mg/kg/injection, schedule: Q01DX009 (ip), vehicle: water): 57 % of control
- T/C (dose: 44.1 mg/kg/injection, schedule: Q01DX009 (ip), vehicle: water): 111 % of control
- T/C (dose: 50.0 mg/kg/injection, schedule: Q04DX003 (ip), vehicle: other): 86 % of control
- T/C (dose: 63.0 mg/kg/injection, schedule: Q01DX009 (ip), vehicle: water): 52 % of control
- T/C (dose: 90.0 mg/kg/injection, schedule: Q01DX009 (ip), vehicle: water): 24 % of control
- T/C (dose: 100.0 mg/kg/injection, schedule: Q04DX003 (ip), vehicle: other): 65 % of control
- T/C (dose: 200.0 mg/kg/injection, schedule: Q04DX003 (ip), vehicle: other): 39 % of control

Compound: N#CC(C#N)=C/C=C/c1cccc([N+](=O)[O-])c1
- T/C (dose: 200.0 mg/kg/injection, schedule: Q01DX010 (sc), vehicle: Klucel (hydroxypropylcellulose) (HPC)): 176 % of control
- T/C (dose: 400.0 mg/kg/injection, schedule: Q01DX010 (sc), vehicle: Klucel (hydroxypropylcellulose) (HPC)): 214 % of control

Compound: CCC(C(=O)O)C(=O)O.[NH2-].[NH2-].[Pt+2]
- T/C (dose: 37.5 mg/kg/injection, schedule: Q04DX003 (sc), vehicle: saline): -27 % of control
- T/C (dose: 37.5 mg/kg/injection, schedule: Q04DX003 (sc), vehicle: suspension in saline): -100 % of control
- T/C (dose: 75.0 mg/kg/injection, schedule: Q04DX003 (sc), vehicle: saline): -100 % of control
- T/C (dose: 75.0 mg/kg/injection, schedule: Q04DX003 (sc), vehicle: suspension in saline): -100 % of control
- T/C (dose: 150.0 mg/kg/injection, schedule: Q04DX003 (sc), vehicle: saline): -100 % of control
- T/C (dose: 150.0 mg/kg/injection, schedule: Q04DX003 (sc), vehicle: suspension in saline): -100 % of control

Compound: O=[N+]([O-])c1ccc(N2CCOCC2)c2c1no[n+]2[O-]
- T/C [11]: 99 % of control
- T/C [8]: 55 % of control
- T/C [9]: 74 % of control
- T/C [10]: 63 % of control

Compound: CCCCCCCC(=O)O[C@H]1[C@H]2[C@@H](CC1(C)C)C(=O)[C@]13O[C@H]1C(=O)[C@]1(CO1)[C@]23C
- T/C (dose: 5.0 mg/kg/injection, schedule: Q04DX003 (ip), vehicle: saline with Tween-80): 100 % of control
- T/C (dose: 10.0 mg/kg/injection, schedule: Q04DX003 (ip), vehicle: saline with Tween-80): 96 % of control
- T/C (dose: 20.0 mg/kg/injection, schedule: Q04DX003 (ip), vehicle: saline with Tween-80): 80 % of control

Compound: NCCCNCCCCNC(=O)C(O)NC(=O)CC(O)CCCCN=C(N)N (configuration not stated)
- T/C (dose: 12.5 mg/kg/injection, schedule: Q04DX003 (ip), vehicle: saline): 100 % of control
- T/C (dose: 25.0 mg/kg/injection, schedule: Q04DX003 (ip), vehicle: saline): 93 % of control
- T/C (dose: 50.0 mg/kg/injection, schedule: Q04DX003 (ip), vehicle: saline): 29 % of control and 44 % of control
- T/C (dose: 100.0 mg/kg/injection, schedule: Q04DX003 (ip), vehicle: saline): 53 % of control and 56 % of control

Compound: COc1cc2c(oc(=O)c3cc(C)cc(OC)c32)c2c(C3OC(C)C(O)C(C)(O)C3O)ccc(O)c12 (configuration not stated)
- T/C (dose: 12.5 mg/kg/injection, schedule: Q04DX003 (ip), vehicle: DMSO): 97 % of control and 106 % of control
- T/C (dose: 50.0 mg/kg/injection, schedule: Q04DX003 (ip), vehicle: DMSO): 48 % of control and 63 % of control

Compound: CNC(=O)N(C)N=NCCCl
- T/C [5]: 15 % of control
- T/C (dose: 140.0 mg/kg/injection, schedule: Q04DX003 (ip), vehicle: saline with Tween-80): 10 % of control
- T/C [6]: 1 % of control
- T/C (dose: 240.0 mg/kg/injection, schedule: Q04DX003 (ip), vehicle: saline with Tween-80): 8 % of control
- T/C [7]: -76 % of control

Compound: CCc1nc(N)nc(N)c1-c1ccc(Cl)c(N=[N+]=[N-])c1
- T/C (dose: 67.0 mg/kg/injection, schedule: Q04DX003 (ip), vehicle: water): 85 % of control

Compound: CC1(C)COCN1COCCOCN1COCC1(C)C
- T/C (dose: 200.0 mg/kg/injection, schedule: Q04DX003 (sc), vehicle: saline): 77 % of control
- T/C (dose: 400.0 mg/kg/injection, schedule: Q04DX003 (sc), vehicle: saline): 83 % of control

Source: PubChem BioAssay AID298 (DTP/NCI, 2004)
